According to BigSolDB 2.1:

O=P(O)(O)c1ccccc1
solubility (mole fraction)
Details	288.15 K	293.15 K	298.15 K	303.15 K	308.15 K	313.15 K	318.15 K
in acetone	0.136	0.155	0.174	0.197	0.22	0.245	0.277
in acetonitrile	0.0136	0.0166	0.0194	0.0228	0.0275	0.0317	0.0365
in chloroform	0.00104	0.00134	0.00164	0.00211	0.00257	0.0032	0.00393
in ethyl acetate	0.00523	0.00634	0.00755	0.00896	0.0106	0.0127	0.0155
in n-propanol	0.305	0.336	0.358	0.388	0.417	0.445	0.47
